Experimental data reported in the supplement of paper PMC12317010.
Counter-ions that a name gives are not always drawn.

Test: collision cross section in nitrogen (drift tube, single-field); higher = larger gas-phase ion size
[1] = ion type: [M+Na], ion source: ESI, ion mode: Positive
[2] = ion type: [M+H], ion source: APCI, ion mode: Positive
[3] = ion type: [M+H], ion source: ESI, ion mode: Positive
[4] = ion type: [M-H], ion source: ESI, ion mode: Negative
[5] = ion type: [M+], ion source: APCI, ion mode: Positive
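Also: chemical standards at 10 µM analysed by drift tube IMS-QTOF MS in about 3.95 torr nitrogen, mean of duplicate injections differing ≤1%, mass error below 10 ppm.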

SMILES	collision cross section in nitrogen [1]	collision cross section in nitrogen [2]	collision cross section in nitrogen [3]	collision cross section in nitrogen [4]	collision cross section in nitrogen [5]
CCCCCCOCCOCCO [2-[2-(Hexyloxy)ethoxy]ethanol]	151.8 Å²				
CCN(CC)c1ccc(C(=O)c2ccccc2C(=O)O)c(O)c1 [2-[4-(Diethylamino)-2-hydroxybenzoyl]benzoic acid]	187.1 Å²	177.2 Å²	177.1 Å²	179.8 Å²	
CN(C)CCOCCN(C)CCO [2-[{2-[2-(Dimethylamino)ethoxy]ethyl}(methyl)amino]ethanol]	144 Å²	138.5 Å²	138.3 Å²		
CCCCCCCCn1sccc1=O [2-n-Octyl-4-isothiazolin-3-one]		158.3 Å²	158 Å²		
CCc1ccc(O)c(C(C)(C)C)c1 [2-tert-Butyl-4-ethylphenol]				144.6 Å²	
COc1ccc(O)c(C(C)(C)C)c1 [2-tert-Butyl-4-methoxyphenol]				142.3 Å²	
Cc1ccc(C(C)(C)C)c(O)c1 [2-tert-Butyl-5-methylphenol]				138.7 Å²	
Cc1cccc(C(C)(C)C)c1O [2-tert-Butyl-6-methylphenol]				138.2 Å²	
COc1ccc(NC(C)=O)cc1N [3'-Amino-4'-methoxyacetanilide]		137.3 Å²	137.2 Å²		
Cc1cn([C@H]2C[C@H](N=[N+]=[N-])[C@@H](CO)O2)c(=O)[nH]c1=O [3'-Azido-3'-deoxythymidine]				159.9 Å²	
CC(C)(c1cc(Br)c(O)c(Br)c1)c1cc(Br)c(O)c(Br)c1 [3,3',5,5'-Tetrabromobisphenol A]				193.4 Å²	
Cc1cc(-c2cc(C)c(N)c(C)c2)cc(C)c1N [3,3',5,5'-Tetramethylbenzidine]		175.7 Å²	176 Å²		162.4 Å²
Cc1ccc(NC(=O)N(C)C)cc1NC(=O)N(C)C [3,3'-(4-Methylbenzene-1,3-diyl)bis(1,1-dimethylurea)]	167.6 Å²		162.7 Å²	165.1 Å²	
N#CCCOCCOCCC#N [3,3'-(Ethylenedioxy)dipropiononitrile]	143 Å²				
Nc1ccc(-c2ccc(N)c(Cl)c2)cc1Cl [3,3'-Dichlorobenzidine dihydrochloride]			167.6 Å²		153.3 Å²
Cc1cc(-c2ccc(N)c(C)c2)ccc1N [3,3'-Dimethylbenzidine dihydrochloride]		151.9 Å²	166.2 Å²		150.7 Å²
Cc1cc(-c2ccc(N)c(C)c2)ccc1N [3,3'-Dimethylbenzidine]		166.1 Å²	166.5 Å²		150.8 Å²
Cc1cc(C(C)(C)c2ccc(O)c(C)c2)ccc1O [3,3'-Dimethylbisphenol A]				172.9 Å²	
Nc1cccc(S(=O)(=O)c2cccc(N)c2)c1 [3,3'-Sulphonyldianiline]	172.6 Å²				
NCCCOCCOCCOCCCN [3,3'-[Oxybis(ethane-2,1-diyloxy)]dipropan-1-amine]	150.3 Å²	147.9 Å²	148.3 Å²		
